This assay deals with HCT116. Conditions: 72 h. In short, it runs like this: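 After seeding at 250 cells per well in 1536-well plates, HCT116 cells were given 5 h to attach. CellTiter-Glo luminescence, scaled to 0% for vehicle and -100% for positive control, was pattern-corrected. Fitting with a four-parameter Hill model produced IC50 and maximal efficacy.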

The values that follow come from the supplement of paper PMC12137928.

Structures can show the parent of a compound that is named as a salt. Where only a bound is given, the exact number is not on record here.

With `COc1ccc2c(O[C@@H]3C[C@H]4C(=O)N[C@]5(C(=O)NS(=O)(=O)C6CC6)C[C@H]5/C=C\CCCCN(C)C(=O)[C@@H]4C3)cc(-c3nc(C(C)C)cs3)nc2c1C` [Simeprevir], the IC50 cell viability (ICRF193 0 nM) is more than 45.8 µM and the IC50 cell viability (ICRF193 200 nM) was more than 45.8 µM.

On to `C[C@]12CC[C@H](O)CC1=CC[C@@H]1[C@@H]2CC[C@]2(C)C(=O)CC[C@@H]12` [Dehydroepiandrosterone], for which the IC50 cell viability is more than 45.8 µM (ICRF193 0 nM) and more than 45.8 µM (ICRF193 200 nM).

As to `CCOC(=O)O[C@]1(C(=O)OCCl)CC[C@H]2[C@@H]3CCC4=CC(=O)C=C[C@]4(C)[C@H]3[C@@H](O)C[C@@]21C` [Loteprednol etabonate], the IC50 cell viability reads like this: (ICRF193 0 nM) more than 45.8 µM; (ICRF193 200 nM) more than 45.8 µM.

As to `C[C@]12CCC(=O)C=C1CC[C@@H]1[C@@H]2[C@@H](O)C[C@@]2(C)[C@H]1CC[C@]2(O)C(=O)CO` [Hydrocortisone], the IC50 cell viability is, setting by setting: (ICRF193 0 nM) more than 45.8 µM; (ICRF193 200 nM) more than 45.8 µM.

Regarding `COc1ccccc1Oc1c(NS(=O)(=O)c2ccc(C(C)(C)C)cc2)nc(-c2ncccn2)nc1OCCO` [Bosentan], the IC50 cell viability is, setting by setting: (ICRF193 0 nM) more than 45.8 µM; (ICRF193 200 nM) more than 45.8 µM.

`O=S(=O)(O)c1ccc2[nH]c(-c3ccccc3)nc2c1` [Ensulizole]: the IC50 cell viability was more than 45.8 µM (ICRF193 0 nM) and more than 45.8 µM (ICRF193 200 nM).

For `CCCc1nc(C)c2c(=O)nc(-c3cc(S(=O)(=O)N4CCN(CC)CC4)ccc3OCC)[nH]n12` [Vardenafil], the IC50 cell viability reads like this: (ICRF193 0 nM) more than 45.8 µM; (ICRF193 200 nM) more than 45.8 µM.

Regarding `C[C@H](NCc1ccc(OCc2cccc(F)c2)cc1)C(N)=O` [Safinamide], the IC50 cell viability is more than 45.8 µM (ICRF193 0 nM) and more than 45.8 µM (ICRF193 200 nM).

As to `COC(=O)/C=C\C(=O)OC` [Dimethyl maleate], the IC50 cell viability is, setting by setting: (ICRF193 0 nM) more than 45.8 µM; (ICRF193 200 nM) more than 45.8 µM.

In the case of `Cc1c(C(C)C)c(=O)n(-c2ccccc2)n1C` [Propyphenazone], the IC50 cell viability was more than 45.8 µM (ICRF193 0 nM) and more than 45.8 µM (ICRF193 200 nM).

For `Cl/C=C\C[N+]12CN3CN(CN(C3)C1)C2`, the IC50 cell viability was more than 45.8 µM (ICRF193 0 nM) and more than 45.8 µM (ICRF193 200 nM).

With `C=CC(N)CCC(=O)O` (centres undefined) [Vigabatrin], the IC50 cell viability is more than 45.8 µM (ICRF193 0 nM) and more than 45.8 µM (ICRF193 200 nM).

Turning to `Cc1ccc(O)c([C@H](CCN(C(C)C)C(C)C)c2ccccc2)c1` [Tolterodine], the IC50 cell viability was more than 45.8 µM (ICRF193 0 nM) and more than 45.8 µM (ICRF193 200 nM).

For `CC1(C)C2CCC1(C)C(O)C2` (centres undefined) [BORNEOL], the IC50 cell viability is more than 45.8 µM (ICRF193 0 nM) and more than 45.8 µM (ICRF193 200 nM).

For `C=C1/C(=C\C=C2/CCC[C@]3(C)[C@@H]([C@H](C)CCCC(C)(C)O)CC[C@@H]23)C[C@@H](O)[C@@H](OCCCO)[C@@H]1O` [Eldecalcitol], the IC50 cell viability (ICRF193 0 nM) was more than 45.8 µM and the IC50 cell viability (ICRF193 200 nM) is more than 45.8 µM.

On to `CC(=O)Oc1cc2c(s1)CCN(C(C(=O)C1CC1)c1ccccc1F)C2` (centres undefined) [Prasugrel], for which the IC50 cell viability is, setting by setting: (ICRF193 0 nM) more than 45.8 µM; (ICRF193 200 nM) more than 45.8 µM.

With `CCCCC(=O)N(Cc1ccc(-c2ccccc2-c2nnn[nH]2)cc1)[C@H](C(=O)O)C(C)C` [VALSARTAN], the IC50 cell viability (ICRF193 0 nM) was more than 45.8 µM and the IC50 cell viability (ICRF193 200 nM) is more than 45.8 µM.

Turning to `CCOC(=O)c1ccc(OC(=O)CCCCCNC(=N)N)cc1` [Gabexate mesilate], the IC50 cell viability (ICRF193 0 nM) was more than 45.8 µM and the IC50 cell viability (ICRF193 200 nM) is more than 45.8 µM.

`NC(=O)NC1NC(=O)NC1=O` (centres undefined) [Allantoin] displayed an IC50 cell viability (ICRF193 0 nM) of more than 45.8 µM and an IC50 cell viability (ICRF193 200 nM) of more than 45.8 µM.

As for `C[N+](C)(C)CCOP(=O)(O)OP(=O)([O-])OC[C@H]1O[C@@H](n2ccc(N)nc2=O)[C@H](O)[C@@H]1O` [CITICOLINE], the IC50 cell viability was more than 45.8 µM (ICRF193 0 nM) and more than 45.8 µM (ICRF193 200 nM).

For `COCCOc1cnc(NS(=O)(=O)c2ccccc2)nc1` [Glymidine sodium], the IC50 cell viability runs as follows: (ICRF193 0 nM) more than 45.8 µM; (ICRF193 200 nM) more than 45.8 µM.

In the case of `O=C(c1cc(Cc2n[nH]c(=O)c3ccccc23)ccc1F)N1CCN(C(=O)C2CC2)CC1` [Olaparib], the IC50 cell viability was more than 45.8 µM (ICRF193 0 nM) and more than 45.8 µM (ICRF193 200 nM).

`CCc1c(C)[nH]c2c1C(=O)C(CN1CCOCC1)CC2` (centres undefined) [Molindone hydrochloride]: the IC50 cell viability by setting is: (ICRF193 0 nM) more than 45.8 µM; (ICRF193 200 nM) more than 45.8 µM.

Regarding `O=C1O[C@H]([C@@H](O)CO)C(O)=C1O` [L-Ascorbic acid], the IC50 cell viability runs as follows: (ICRF193 0 nM) more than 45.8 µM; (ICRF193 200 nM) more than 45.8 µM.

On to `O=C(COCCOCCOCC(=O)Nc1c(I)cc(I)c(C(=O)O)c1I)Nc1c(I)cc(I)c(C(=O)O)c1I` [Biliscopin], for which the IC50 cell viability reads like this: (ICRF193 0 nM) more than 45.8 µM; (ICRF193 200 nM) more than 45.8 µM.

As for `CCCNC(C)(C)COC(=O)c1ccccc1` [Meprylcaine hydrochloride], the IC50 cell viability runs as follows: (ICRF193 0 nM) more than 45.8 µM; (ICRF193 200 nM) more than 45.8 µM.

Turning to `CO/N=C(\C(=O)N[C@@H]1C(=O)N2C(C(=O)O)=C(C[N+]3(C)CCCC3)CS[C@H]12)c1csc(N)n1` [CEFEPIME HYDROCHLORIDE], the IC50 cell viability (ICRF193 0 nM) is more than 45.8 µM and the IC50 cell viability (ICRF193 200 nM) is more than 45.8 µM.

Regarding `O=C(/C=C/c1ccccc1)OCc1ccccc1` [Benzyl cinnamate], the IC50 cell viability was more than 45.8 µM (ICRF193 0 nM) and more than 45.8 µM (ICRF193 200 nM).

As to `N[C@@H](CSCCCO)C(=O)O` [Fudosteine], the IC50 cell viability by setting is: (ICRF193 0 nM) more than 45.8 µM; (ICRF193 200 nM) more than 45.8 µM.

Take `CC(C(=O)O)c1cccc(Oc2ccccc2)c1` (centres undefined) [Fenoprofen calcium salt dihydrate]: the IC50 cell viability is more than 45.8 µM (ICRF193 0 nM) and more than 45.8 µM (ICRF193 200 nM).

On to `CCC1(c2ccccc2)C(=O)NCNC1=O` [Primidone], for which the IC50 cell viability was more than 45.8 µM (ICRF193 0 nM) and more than 45.8 µM (ICRF193 200 nM).

As for `C[C@]1(Cn2ccnn2)[C@H](C(=O)O)N2C(=O)C[C@H]2S1(=O)=O` [Tazobactam sodium], the IC50 cell viability (ICRF193 0 nM) is more than 45.8 µM and the IC50 cell viability (ICRF193 200 nM) is more than 45.8 µM.

Turning to `CCN(CC)C(=O)C1CN2CCc3cc(OC)c(OC)cc3C2CC1OC(C)=O` (centres undefined) [Benzquinamide], the IC50 cell viability is more than 45.8 µM (ICRF193 0 nM) and more than 45.8 µM (ICRF193 200 nM).

`CNC[C@H](O)[C@@H](O)[C@H](O)[C@H](O)CO` [Meglumine]: the IC50 cell viability was more than 45.8 µM (ICRF193 0 nM) and more than 45.8 µM (ICRF193 200 nM).

With `COC(=O)CCC(=O)CN` [Methyl delta-aminolevulinate hydrochloride], the IC50 cell viability reads like this: (ICRF193 0 nM) more than 45.8 µM; (ICRF193 200 nM) more than 45.8 µM.

As to `CC1(C)S[C@@H]2[C@H](NC(=O)[C@H](N)c3ccccc3)C(=O)N2[C@H]1C(=O)OCOC(=O)[C@@H]1N2C(=O)C[C@H]2S(=O)(=O)C1(C)C` [Sultamicillin tosylate], the IC50 cell viability was more than 45.8 µM (ICRF193 0 nM) and more than 45.8 µM (ICRF193 200 nM).

Turning to `CCCCCC[C@@H](O)C/C=C\CCCCCCCC(=O)O` [Potassium ricinoleate], the IC50 cell viability runs as follows: (ICRF193 0 nM) more than 45.8 µM; (ICRF193 200 nM) more than 45.8 µM.

`CN(Cc1cc(Br)cc(Br)c1N)C1CCCCC1` [Bromhexine hydrochloride]: the IC50 cell viability reads like this: (ICRF193 0 nM) more than 45.8 µM; (ICRF193 200 nM) more than 45.8 µM.

Take `CC(C)(O)c1ccccc1CC[C@@H](SCC1(CC(=O)O)CC1)c1cccc(/C=C/c2ccc3ccc(Cl)cc3n2)c1` [Montelukast sodium]: the IC50 cell viability by setting is: (ICRF193 0 nM) more than 45.8 µM; (ICRF193 200 nM) more than 45.8 µM.

Compound `OC[C@H]1O[C@@H](O[C@@H]2[C@@H](CO)OC(O)(CO)[C@H]2O)[C@H](O)[C@@H](O)[C@H]1O` (mixture of isomers) [Lactulose] displayed an IC50 cell viability (ICRF193 0 nM) of more than 45.8 µM and an IC50 cell viability (ICRF193 200 nM) of more than 45.8 µM.

For the compound `CN(C)CCN(Cc1ccccc1)c1ccccn1` [Tripelennamine citrate], the IC50 cell viability runs as follows: (ICRF193 0 nM) more than 45.8 µM; (ICRF193 200 nM) more than 45.8 µM.

As to `Clc1ccccc1CN1CCc2sccc2C1` [Ticlopidine hydrochloride], the IC50 cell viability is more than 45.8 µM (ICRF193 0 nM) and more than 45.8 µM (ICRF193 200 nM).

For `NC(=O)c1ccccc1O` [Salicylamide], the IC50 cell viability was more than 45.8 µM (ICRF193 0 nM) and more than 45.8 µM (ICRF193 200 nM).

For the compound `CC1(C)O[C@@H]2C[C@H]3[C@@H]4C[C@H](F)C5=CC(=O)CC[C@]5(C)[C@H]4[C@@H](O)C[C@]3(C)[C@]2(C(=O)CO)O1` [Flurandrenolide], the IC50 cell viability was more than 45.8 µM (ICRF193 0 nM) and more than 45.8 µM (ICRF193 200 nM).

Take `COc1cc2c(cc1OC)CC(=O)N(CCCN(C)C[C@H]1Cc3cc(OC)c(OC)cc31)CC2` [Ivabradine hydrochloride]: the IC50 cell viability is more than 45.8 µM (ICRF193 0 nM) and more than 45.8 µM (ICRF193 200 nM).

In the case of `CCOc1ccc(Cc2cc([C@]34OC[C@](CO)(O3)[C@@H](O)[C@H](O)[C@H]4O)ccc2Cl)cc1`, the IC50 cell viability is more than 45.8 µM (ICRF193 0 nM) and more than 45.8 µM (ICRF193 200 nM).

For the compound `CCCC(=O)O[C@]1(C(=O)COC(=O)CC)[C@@H](C)C[C@H]2[C@@H]3CCC4=CC(=O)C=C[C@]4(C)[C@@]3(F)[C@@H](O)C[C@@]21C` [Betamethasone butyrate propionate], the IC50 cell viability was more than 45.8 µM (ICRF193 0 nM) and more than 45.8 µM (ICRF193 200 nM).

On to `CC(C)[C@H]1CC[C@H](C)C[C@@H]1O` [(1S,2R,5S)-(+)-Menthol], for which the IC50 cell viability reads like this: (ICRF193 0 nM) more than 45.8 µM; (ICRF193 200 nM) more than 45.8 µM.

`CCCCS(=O)(=O)N[C@@H](Cc1ccc(OCCCCC2CCNCC2)cc1)C(=O)O` [Tirofiban hydrochloride monohydrate]: the IC50 cell viability is, setting by setting: (ICRF193 0 nM) more than 45.8 µM; (ICRF193 200 nM) more than 45.8 µM.

Take `CC(=O)OC(C)OC(=O)C(C)c1ccc(-c2ccccc2)c(F)c1` (centres undefined) [Flurbiprofen axetil]: the IC50 cell viability by setting is: (ICRF193 0 nM) more than 45.8 µM; (ICRF193 200 nM) more than 45.8 µM.

On to `CC[C@H]1[C@@H](O)[C@@H]2[C@H](CC[C@]3(C)[C@@H]([C@H](C)CCC(=O)O)CC[C@@H]23)[C@@]2(C)CC[C@@H](O)C[C@@H]12` [INT-747 (Obeticholic acid)], for which the IC50 cell viability reads like this: (ICRF193 0 nM) more than 45.8 µM; (ICRF193 200 nM) more than 45.8 µM.

On to `CN(C)CCc1c[nH]c2ccc(C[C@H]3COC(=O)N3)cc12` [Zolmitriptan], for which the IC50 cell viability is more than 45.8 µM (ICRF193 0 nM) and more than 45.8 µM (ICRF193 200 nM).
